Data as given in ChEMBL document CHEMBL1773038, “In silico and in vitro validation of serine hydroxymethyltransferase as a chemotherapeutic target of the antifolate drug pemetrexed” (Eur J Med Chem, 2011).

What was measured:
[1] = target: T1, Serine hydroxymethyltransferase, cytosolic (Homo sapiens, UniProt P34896); test: Competitive inhibition of human recombinant Serine hydroxymethyltransferase, cytosolic by spectrophotometry
T1 sequence (P34896 whole entry): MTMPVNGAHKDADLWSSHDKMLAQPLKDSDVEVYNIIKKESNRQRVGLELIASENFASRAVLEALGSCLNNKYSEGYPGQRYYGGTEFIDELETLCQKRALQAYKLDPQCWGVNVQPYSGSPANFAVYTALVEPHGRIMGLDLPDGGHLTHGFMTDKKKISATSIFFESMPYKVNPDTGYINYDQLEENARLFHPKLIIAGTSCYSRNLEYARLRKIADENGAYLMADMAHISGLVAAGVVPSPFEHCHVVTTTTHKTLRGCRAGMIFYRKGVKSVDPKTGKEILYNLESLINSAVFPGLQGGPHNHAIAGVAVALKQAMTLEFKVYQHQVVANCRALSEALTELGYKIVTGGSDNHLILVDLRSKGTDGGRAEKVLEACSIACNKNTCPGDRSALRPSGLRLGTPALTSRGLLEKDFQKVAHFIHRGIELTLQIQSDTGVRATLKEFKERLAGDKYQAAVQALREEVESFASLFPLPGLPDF

[2] = target: T1, Serine hydroxymethyltransferase, cytosolic; test: Inhibition of human recombinant Serine hydroxymethyltransferase, cytosolic measured by slope intercepts of mixed-type inhibition against compound concentration by spectrophotometry
[3] = target: T1, Serine hydroxymethyltransferase, cytosolic; test: Binding affinity to human recombinant Serine hydroxymethyltransferase, cytosolic by isothermal titration calorimetry
[4] = target: T1, Serine hydroxymethyltransferase, cytosolic; test: Mixed-type inhibition of human recombinant Serine hydroxymethyltransferase, cytosolic measured by Y-axes intercepts of mixed-type inhibition against compound concentration by spectrophotometry

Q: Nc1nc2[nH]cc(CCc3ccc(C(=O)N[C@@H](CCC(=O)O)C(=O)O)cc3)c2c(=O)[nH]1 [PEMETREXED] was tested. Which Ki [1] did it give?
A: 19.1 µM

Q: What about the Ki [2] of the same compound?
A: 33 µM

Q: And the Kd [3]?
A: 16.9 µM

Q: What about the Ki [4] of the same compound?
A: 186 µM
